Source: paper PMC7177456, “A Peptidomimetic Fluorescent Probe to Detect the Trypsin β2 Subunit of the Human 20S Proteasome” (International Journal of Molecular Sciences, 2020)

Columns and labels:
[1] = target: T1, human 20S proteasome, trypsin-like (β2) subunit (Homo sapiens, UniProt P49720+Q99436); assay: Kinetic parameters of substrate 1 with human 20S proteasome (allosteric fit); assay type: biochemical; settings: for kcat/Km: calculated from the kcat and Km values; for Km / kcat: 20S proteasome 1.07 × 10^−9 M
T1 construct: purchased Boston Biochem (Cambridge, MA, USA)
Description: For enzymatic studies, the human 20S proteasome, 26S proteasome, and 20S immunoproteasome were purchased from Boston Biochem (Cambridge, MA, USA). The 20S proteasome concentration for library deconvolution was in the nanomolar range, and this proteasome entity was used for the main study. Deconvolution of the peptide libraries was performed using the iterative solution method. Dimethyl sulfoxide (DMSO) was used as a solvent for preparation of the stock solution (5 mg/mL) for each lyophilized sub-library. This stock solution was diluted ten times using an assay buffer (50 mM Tris/HCl buffer (pH 8.2)) for the 20S and 20Si proteasome, and for 26S, the buffer was supplemented with 40 mM KCl, 2 mM EDTA, 1 mM DTT, 100 µM ATP, and 50 µg/mL bovine serum albumin (BSA). The volume composition of each well of the 96-well plate was: 20 µL library, 160 µL assay buffer, and 20 µL 20S proteasome solution at a concentration of 1.07 × 10^−9 M. Absorbance or fluorescence measurements were performed on a FluoroStar OMEGA multimode microplate reader (BMG, Ortenberg, Germany). Absorbance increases were monitored at 410 nm. The excitation and emission wavelengths were 320 and 450 nm respectively, for the ABZ/ANB. Enzymatic hydrolysis of the peptide was performed in the assay buffer at 37 °C and continued over 60 min.
The procedures to determine the kinetic constants Km and kcat are described below. Increasing concentrations of substrate 1 ranged from 1 × 10^−6 to 2 × 10^−5 M. In parallel, a kinetic assay with the artificial activator SDS at 0.01% was also performed. The data were fitted to an allosteric plot using GraphPad prism v6.0 (GraphPad Software Inc., La Jolla, CA, USA). The specificity constants (kcat/ Km) were calculated from the kcat and Km values. Measurements were performed using a 20S proteasome concentration of 1.07 × 10^−9 M. Three to five measurements were performed for each compound dilution (the systematic error, defined as the standard deviation, never surpassed 20%). The initial hydrolysis rates were used as the amount of enzymatic activity for the tested compounds. All kinetic study details and kinetic parameters have been described elsewhere.

[2] = system: 20S proteasome; assay: Library deconvolution, cleavage rates of sublibraries and individual compounds; assay type: biochemical, human; settings: P4 Dap(O2(Cbz)), P3 Dap(GO1); 3.4 × 10^−6 M; 20S proteasome 1.46 × 10^−9 M; pH 8.2, 37 °C
Description: Deconvolution of the synthesized library with a fixed Arg in position P1 and diversified by DAPEG residues at positions P2–P4 was performed in a solution using a mix and split approach. […] Since the proteasome structure has three pairs of catalytically active subunits with distinct specificities (chymotrypsin, trypsin, and caspase), we repeated these experiments in the presence of a trypsin subunit inhibitor (PR671A). In effect, a 96% reduction in activity was recorded. This observation allowed us to proceed with screening at position P3 (Figure 2A).
Figure 2 Deconvolution of the library (at an average concentration of 3.4 × 10^−6 M) with the general formula ABZ–X4–X3–X2–Arg–ANB–NH2 against the 20S proteasome (1.46 × 10^−9 M). (A) Cleavage rates of individual sublibraries recorded for position X4; (B) Cleavage rates of individual sublibraries recorded for position X3; (C) Cleavage rates of individual compounds modified in position X2. […]
For enzymatic studies, the human 20S proteasome, 26S proteasome, and 20S immunoproteasome were purchased from Boston Biochem (Cambridge, MA, USA). […] The volume composition of each well of the 96-well plate was: 20 µL library, 160 µL assay buffer, and 20 µL 20S proteasome solution at a concentration of 1.07 × 10^−9 M. Absorbance or fluorescence measurements were performed on a FluoroStar OMEGA multimode microplate reader (BMG, Ortenberg, Germany). […]

[3] = in the presence of artificial activator SDS 0.01%, pH 8.2, 37 °C

For “ABZ–Dap(O2(Cbz))–Dap(GO1)–Dap(O2(Cbz))–Arg–ANB–NH2 [substrate 1]”, the kcat/Km ([1]; in the presence of artificial activator SDS 0.01%) was 3.23e+07 M⁻¹ s⁻¹, the Km [1, 3] was 6.84 ± 0.12 µM and the kcat [1, 3] was 221 ± 18 s⁻¹. For the same substance, the kcat ([1]; substrate alone, without SDS, 50 mM Tris/HCl pH 8.2, 37 °C) was 245 ± 21 s⁻¹, the Km ([1]; substrate alone, without SDS, 50 mM Tris/HCl pH 8.2, 37 °C, substrate 1 × 10^−6 to 2 × 10^−5 M, ABZ/ANB fluorescence 320/450 nm, three to five measurements) was 3.22 ± 0.02 µM and the kcat/Km ([1]; substrate alone, without SDS) was 7.61e+07 M⁻¹ s⁻¹. For the same substance, the “type of cleavage kinetics” value ([1]; substrate alone, characteristic for allosteric enzymes) was “sigmoidal kinetics” and the “cleavage rate, position P2 (X2), individual compounds” value [2] was “significantly higher compared to the rates of the other tested systems”.
